Source: US7105534B2, “Imidazo[1,2-α]pyridine ether compounds as ion channel modulators” (Cardiome Pharma Corp., priority 2000, dated 2006)
Structures can show the parent of a compound that is named as a salt.

What was measured:
Kv1.5 = biological target: T1, Kv1.5 (Homo sapiens, UniProt P22460); assay: Patch-clamp inhibition of cloned ion channel current in transfected HEK cells: Kv1.5; type: cell-based; conditions: steady-state current, -80 mV to +60 mV
T1 construct: expressed in transfected cells; host or cells: HEK cells, transient transfection, vector pCDNA3
T1 sequence (P22460 whole entry): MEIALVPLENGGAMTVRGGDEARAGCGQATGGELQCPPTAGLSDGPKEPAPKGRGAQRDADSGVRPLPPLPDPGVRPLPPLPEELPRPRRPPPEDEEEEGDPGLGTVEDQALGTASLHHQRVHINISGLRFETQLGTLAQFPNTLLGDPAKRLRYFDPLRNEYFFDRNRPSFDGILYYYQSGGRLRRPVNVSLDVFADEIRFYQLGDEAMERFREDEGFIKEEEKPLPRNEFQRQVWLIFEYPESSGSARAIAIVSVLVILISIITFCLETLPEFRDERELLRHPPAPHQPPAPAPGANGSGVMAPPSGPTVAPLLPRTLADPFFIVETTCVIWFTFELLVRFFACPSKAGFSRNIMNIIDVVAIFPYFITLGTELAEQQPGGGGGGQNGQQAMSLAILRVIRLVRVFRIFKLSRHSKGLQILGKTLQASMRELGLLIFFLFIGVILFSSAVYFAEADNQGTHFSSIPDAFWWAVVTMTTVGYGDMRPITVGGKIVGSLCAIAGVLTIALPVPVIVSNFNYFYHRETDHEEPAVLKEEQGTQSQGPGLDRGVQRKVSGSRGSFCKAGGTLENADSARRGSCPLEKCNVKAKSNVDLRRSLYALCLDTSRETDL
Description: (§1) The relevant cloned ion channels (e.g. cardiac hH1, Kv1.4, Kv1.5, Kv4.2, Kv2.1, HERG etc.) are studied by transient transfection into HEK cells using the mammalian expression vector pCDNA3. Transfections for each channel type are carried out separately to allow individual study of the ion channel of interest. Cells expressing channel protein are detected by cotransfecting cells with the vector pHook-1 (Invitrogen, San Diego, Calif., USA). […] Equal concentrations of individual channel and pHook DNA are incubated with 10× concentration of lipofectAce in Modified Eagle's Medium (MEM, Canadian Life Technologies) and incubated with parent HEK cells plated on 25 mm culture dishes. After 3–4 hours the solution is replaced with a standard culture medium plus 20% fetal bovine serum and 1% antimycotic. Transfected cells are maintained at 37C in an air/5% CO2 incubator in 25 mm Petri dishes plated on glass coverslips for 24–48 hours to allow channel expression to occur. 20 min prior to experiments, cells are treated with beads coated with phOX. After 15 min, excess beads are […] off with cell culture medium and cells which had beads stuck to them are used for electrophysiological tests.
(§2) For whole-cell recording the control pipette filling solution contained (in mM): KCl, 130; EGTA, 5; MgCl2, 1; HEPES, 10; Na2ATP, 4; GTP, 0.1; and is adjusted to pH 7.2 with KOH. The control bath solution contained (in mM): NaCl, 135; KCI, 5; sodium acetate, 2.8; MgCl2, 1; HEPES, 10; CaCl2, 1; and is adjusted to pH 7.4 with NaOH. The test ion channel modulating compound is dissolved to 10 mM stock solutions in water and used at concentrations between 0.5 and 100 μM.
(§3) Coverslips containing cells are removed from the incubator before experiments and placed in a superfusion chamber (volume 250 μl) containing the control bath solution at 22C to 23C. All recordings are made via the variations of the patch-clamp technique, using an Axopatch 200A amplifier (Axon Instruments, CA). Patch electrodes are pulled from thin-walled borosilicate glass (World Precision Instruments; FL) on a horizontal micropipette puller, fire-polished, and filled with appropriate solutions. Electrodes had resistances of […] when filled with control filling solution. Analog capacity compensation is used in all whole cell measurements. In some experiments, leak subtraction is applied to data. Membrane potentials have not been corrected for any junctional potentials that arose between the pipette and bath solution. Data are filtered at 5 to 10 kHz before digitization and stored on a microcomputer for later analysis using the pClamp6 software (Axon Instruments, Foster City, Calif.). Due to the high level of expression of channel cDNA's in HEK cells, there is no need for signal averaging. The average cell capacitance is quite small, and the absence of ionic current at negative membrane potentials allowed faithful leak subtraction of data.
(§4) The concentration-response curves for changes in peak and steady-state current produced by the test compound are computer-fitted to the Hill equation: f=1−1/[1+([…])^n] [1]
(§5) where f is the fractional current (f=Idrug/Icontrol) at drug concentration [D]; IC50 is the concentration producing half-maximal inhibition and n is the Hill coefficient.
(§6) Compounds of the present invention may be evaluated by this method. […] Block is determined from the decrease in peak hH1 Na^+ current, or in steady-state Kv1.5 and integrated Kv4.2 current in the presence of drug. To record Na^+ current, cells are depolarized from the holding potential of −100 mV to a voltage of −30 mV for 10 ms to fully open and inactivate the channel. To record Kv1.5 and Kv4.2 current, cells are depolarized from the holding potential of −80 mV to a voltage of +60 mV for 200 ms to fully open the channel. Currents are recorded in the steady-state at a range of drug concentrations during stimulation every 4 s. […]

HERG = biological target: T2, HERG (Homo sapiens, UniProt Q12809); assay: Patch-clamp inhibition of cloned ion channel current in transfected HEK cells: HERG; type: cell-based; conditions: whole-cell patch clamp
T2 construct: expressed in transfected cells; host or cells: HEK cells, transient transfection, vector pCDNA3
T2 sequence (Q12809 whole entry): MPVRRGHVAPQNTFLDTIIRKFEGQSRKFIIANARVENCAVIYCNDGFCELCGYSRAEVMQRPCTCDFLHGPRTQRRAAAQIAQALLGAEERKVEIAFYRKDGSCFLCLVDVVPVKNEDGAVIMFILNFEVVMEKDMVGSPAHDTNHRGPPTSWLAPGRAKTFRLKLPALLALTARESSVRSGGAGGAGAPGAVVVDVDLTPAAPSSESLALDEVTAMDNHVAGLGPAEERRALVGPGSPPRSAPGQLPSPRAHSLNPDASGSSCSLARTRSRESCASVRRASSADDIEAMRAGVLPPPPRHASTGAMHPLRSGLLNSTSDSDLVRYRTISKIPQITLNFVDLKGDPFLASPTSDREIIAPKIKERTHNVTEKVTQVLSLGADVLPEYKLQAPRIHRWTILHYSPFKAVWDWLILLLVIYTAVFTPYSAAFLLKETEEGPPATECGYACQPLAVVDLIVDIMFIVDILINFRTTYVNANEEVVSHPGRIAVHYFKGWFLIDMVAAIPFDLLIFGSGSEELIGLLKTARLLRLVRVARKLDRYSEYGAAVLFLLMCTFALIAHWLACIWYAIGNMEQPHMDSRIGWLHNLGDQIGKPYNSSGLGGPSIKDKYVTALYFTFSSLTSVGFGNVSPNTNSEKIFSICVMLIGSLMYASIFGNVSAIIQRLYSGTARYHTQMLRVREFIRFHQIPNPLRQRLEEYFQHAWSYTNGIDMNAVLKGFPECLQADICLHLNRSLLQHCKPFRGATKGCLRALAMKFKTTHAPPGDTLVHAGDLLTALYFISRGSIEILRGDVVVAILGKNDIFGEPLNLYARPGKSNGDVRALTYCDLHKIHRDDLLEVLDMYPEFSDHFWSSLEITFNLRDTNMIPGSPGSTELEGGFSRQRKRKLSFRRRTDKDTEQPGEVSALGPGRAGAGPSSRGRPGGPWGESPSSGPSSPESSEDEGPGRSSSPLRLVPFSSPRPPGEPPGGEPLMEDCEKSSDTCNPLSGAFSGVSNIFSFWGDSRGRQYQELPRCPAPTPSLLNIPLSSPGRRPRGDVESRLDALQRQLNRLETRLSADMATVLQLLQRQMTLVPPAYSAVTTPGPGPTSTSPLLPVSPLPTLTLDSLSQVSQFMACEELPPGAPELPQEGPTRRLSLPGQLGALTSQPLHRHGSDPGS
Description: as §1, §2, §3, §4, §5, §6

Compound | IC50 (Kv1.5) | IC50 (HERG)
Cc1cn2ccc(C)c(OCCCc3ccccc3)c2n1 [Compound 18, 2,7-DIMETHYL-8-[3-PHENYLPROPRXY]IMIDAZO[1,2-α]PYRIDINE MONOHYDROCHLORIDE] | 3000 nM | 1000 nM
Cc1nc2c(OCCCc3ccc(Cl)cc3Cl)cccn2c1Br [Compound 19, 3-BROMO-8-[3-(2,4-DICHLOROPHENYL)PROPOXY]-2-METHYLIMIDAZO[1,2-α]PYRIDINE MONOHYDROCHLORIDE] | 300 nM | 400 nM
CC(C)c1cn2cccc(OCCCc3ccc(Cl)cc3Cl)c2n1 [Compound 20, 8-[3-(2,4-DICHLOROPHENYL)PROPOXY]-2-ISOPROPYLIMIDAZO[1,2-α]PYRIDINE MONOHYDROCHLORIDE] | 200 nM | 100 nM
FC(F)(F)c1cn2cccc(OCC3(c4ccccc4)CC3)c2n1 [Compound 23, 8-[(1-PHENYLCYCLOPROPYL)METHOXY]-2-(TRIFLUOROMETHYL)IMIDAZO[1,2-α]PYRIDINE MMONOHYDROCHLORIDE] | 3000 nM | 9000 nM
CNCc1c(C)nc2c(OCCCc3ccc(Cl)cc3Cl)cccn12 [Compound 24, 8-[3-(2,4-DICHLOROPHENYL)PROPOXY]-3-[(METHYLAMINO)METHYL]-2-METHYL-IMIDAZO[1,2-α]PYRIDINE DIHYDROCHLORIDE] | 2000 nM | 200 nM
Cc1nc2c(OCCCc3ccc(Cl)cc3Cl)cccn2c1CN(C)C [Compound 25, 8-[3-(2,4-DICHLOROPHENYL)PROPOXY]-3-[(DIMETHYLAMINO)METHYL]-2-METHYLIMIDAZO[1,2-α]PYRIDINE DIHYDROCHLORIDE] | 8000 nM | 100 nM
Cc1nc2c(OCCCc3ccc(Cl)cc3Cl)cccn2c1N [Compound 26, 3-AMINO-8-[3-(2,4-DICHLOROPHENYL)PROPOXY]-2-METHYLIMIDAZO[1,2-α]PYRIDINE DIHYDROCHLORIDE] | 800 nM | 200 nM

Now from value to compound, other results behind:

IC50 (Kv1.5) | Compound | IC50 (HERG)
700 nM | Cc1cn2ccc(C)c(OCCCc3ccc(Cl)cc3Cl)c2n1 [Compound 14, 8-[3-(2,4-DICHLOROPHENYL)PROPOXY]-2,7-DIMETHYLIMIDAZO[1,2-α]PYRIDINE MONOHYDROCHLORIDE] | 
4000 nM | Cc1cn2ccc(C)c(OCC3(c4ccccc4)CC3)c2n1 [Compound 17, 2,7-DIMETHYL-8-[(1-PHENYL-CYCLOPROPYL)METHOXY]IMIDAZO[1,2-α]PYRIDINE MONOHYDROCHLORIDE] | 1000 nM
2000 nM | Cc1nc2c(OCCCc3ccc(Cl)cc3Cl)cccn2c1CO [Compound 21, {8-[3-(2,4-DICHLOROPHENYL)PROPOXY]-2-METHYLIMIDAZO[1,2-α]PYRIDIN-3-yl}METHANOL MMONOHYDROCHLORIDE] | 60 nM
400 nM | Cc1nc2c(OCCCc3ccc(Cl)cc3Cl)cccn2c1Cl [Compound 22, 3-CHLORO-8-[3-(2,4-DICHLOROPHENYL)PROPOXY]-2-METHYLI[1,2-α]PYRIDINE MMONOHYDROCHLORIDE] | 1000 nM
600 nM | Clc1ccc(CCCOc2cccn3c4c(nc23)CCCC4)c(Cl)c1 [Compound 27, 4-[3-(2,4-DICHLOROPHENYL)PROPOXY]-6,7,8,9-TETRAHYDROBENZO[4,5]IMIDAZO-[1,2-α]PYRDINE MMONOHYDROCHLORIDE] | 100 nM
800 nM | Cc1nc2c(OCC3(c4ccccc4)CC3)cccn2c1Br [Compound 28, 3-BROMO-2-METHYL-8-[(1-PHENYL-CYCLOPROPYL)METHOXY]IMIDAZO[1,2-α]PYRIDINE MMONOHYDROCHLORIDE] | 2000 nM
700 nM | Clc1ccc(CCCOc2cccn3c4c(nc23)CCC4)c(Cl)c1 [Compound 29, 7-[3-(2,4-DICHLOROPHENYL)PROPOXY]-2,3-DIHYDRO-1H-3b,8-DIAZOCYCLOPENTA[a]indene MMONOHYDROCHLORIDE] | 80 nM
1000 nM | CCOC(=O)c1c(C)nc2c(OCC3(c4ccccc4)CC3)cccn12 [Compound 30, ETHYL 2-METHYL-8-[(1-PHENYL-CYCLOPROPYL)METHOXY]IMIDAZO[1,2-α]PYRIDINE-3-CARBOXYLATE MMONOHYDROCHLORIDE] | 2000 nM
